Data from patent publication US20230406883A1, “COMPOUNDS AND THEIR USE IN TREATMENT OF TACHYKININ RECEPTOR MEDIATED DISORDERS” (Embark Biotech ApS, priority 2020, published 2023).
pEC50: −log10 of the molar value. Several values for one entry are separate records, joined by “and”; a condition that tells them apart may be missing. Equal entries are not always repeated. Numbered stars: 1 amine (or outer) side, 2 acyl side, 3 side chain; on linkers, the order of the positions; unused ones are H or OH. Square brackets hold non-standard residues; d marks the D form. Peptide text beside a SMILES is read from it. * marks the point of attachment. C18 diacid = O=C(O)CCCCCCCCCCCCCCCCC(=O)*; γGlu = O=C(O)[C@H](CCC(=O)[*:2])N[*:1]; mTyr = N[C@@H](Cc1cccc(O)c1)C(=O)O; NMeL = CN[C@@H](CC(C)C)C(=O)O; Nle = CCCC[C@H](N)C(=O)O; AEEA = NCCOCCOCC(=O)O; βAla = NCCC(=O)O

Experiments:
Assay in all cases: IP3 assay (inositol trisphosphate, 3H-myoinositol) in transiently transfected COS-7 cells
Format in all cases: cell-based
hNK1R = target: T1, hNK1R (Homo sapiens, UniProt P25103); settings: COS-7 cells; for pEC50: 0.2% ovalbumin buffer; for hNK1R, IP3 Efficacy: figure legends: percent of 10^-6 M NKA
T1 construct: host or cells: COS-7
Procedure: (§1) Agonist-induced G-protein coupled receptor (GPCR) activation was measured by an Inositol-1,4,5-Trisphosphate [^3H] Radioreceptor Assay (IPs Assay). Assays were carried out using COS-7 cells transiently transfected by calcium phosphate transfection with a vector pcDNA3.1(+) encoding one of the indicated receptors (Genscript). Briefly, DNA mixed with CaCl2 (2 M) and TE-buffer (10 mM Tris-HCl, 1 mM EDTA, pH 7.5) was dropwise added to 2×HBS (50 mM HEPES, 280 mM NaCl, 1.5 mM NaH2PO4, pH 7.2) and incubated for 45 min at room temperature (22±2° C.). The mixture and a final concentration of 100 μM Chloroquine were added to the cells and left to incubate for 5 hours at 37° C. under standard cell culture conditions (10% CO2) before changing medium to fresh medium containing 5 μl/mL Myo-[2-^3H(N)]-inositol (labelling medium).
(§2) The IP3 assay takes advantage of the tachykinin receptors' ability to induce production of the inositol trisphosphate (IP3) second messenger upon agonist (ligand) binding on receptor expressing cells following an initial ^3H-inositol labelling period. In effect this means that production of the second messenger IP3 as a measure of receptor activity can be assessed by counting ^3H-activity.
(§3) Assay solutions used: Wash buffer (HBSS), Assay buffer (HBSS+10 mM LiCl and 0,2% w/v ovalbumin), Lysis buffer (10 mM formic acid), and SPA YSI beads (12.5 mg/ml in H2O). The assay was performed the day after transfection. Briefly, labelling medium was aspirated, and plates were washed ×1 in wash buffer before adding 100 μl assay buffer, pre-incubated for 30 min followed by 120 min incubation with agonist, both at 37° C. After incubation, plates were immediately placed on ice and the incubation medium was aspirated and 40 μl of 10 mM formic acid per well was added. Plates were incubated for at least 30 min on ice. 60 μl (1 mg/well) SPA YSI beads/well was pipetted into a solid white 96 wells plate and 35 μl of the lysis solution was transferred to the plate before covering plates with seal cover and shaking for 10 min. (max speed). Centrifuge plates and leave for 8 hours at room temperature before counting the plates in a MicroBeta plate counter (Perkin Elmer).

hNK3R = target: T2, hNK3R (Homo sapiens, UniProt P29371); settings: COS-7 cells; for pEC50: 0.2% ovalbumin buffer, read-out: hNK3, IP3 EC50; for hNK3, IP3 Efficacy: figure legends: percent of 10^-6 M NKA
T2 construct: host or cells: COS-7
T2 sequence (P29371 1-465): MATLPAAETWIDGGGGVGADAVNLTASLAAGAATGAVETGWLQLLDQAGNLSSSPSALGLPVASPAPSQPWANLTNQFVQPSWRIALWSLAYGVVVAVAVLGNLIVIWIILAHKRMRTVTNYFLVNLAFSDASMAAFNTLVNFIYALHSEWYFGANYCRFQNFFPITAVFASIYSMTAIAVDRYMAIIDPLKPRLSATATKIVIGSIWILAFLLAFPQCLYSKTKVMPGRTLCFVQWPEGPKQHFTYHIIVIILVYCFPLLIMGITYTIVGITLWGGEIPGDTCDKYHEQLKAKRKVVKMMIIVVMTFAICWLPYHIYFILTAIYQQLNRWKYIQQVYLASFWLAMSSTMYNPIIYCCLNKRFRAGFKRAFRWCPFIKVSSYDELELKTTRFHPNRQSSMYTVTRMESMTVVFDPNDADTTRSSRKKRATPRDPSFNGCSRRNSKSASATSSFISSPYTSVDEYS
Procedure: as §1, §2, §3

hNK2R = target: T3, hNK2R (Homo sapiens, UniProt P21452); settings: for pEC50 / hNK2R, IP3 Efficacy: COS-7 cells; for pEC50: 0.2% ovalbumin buffer; for hNK2R, IP3 Efficacy: figure legends: percent of 10^-6 M NKA
T3 construct: host or cells: COS-7
T3 sequence (P21452 1-398): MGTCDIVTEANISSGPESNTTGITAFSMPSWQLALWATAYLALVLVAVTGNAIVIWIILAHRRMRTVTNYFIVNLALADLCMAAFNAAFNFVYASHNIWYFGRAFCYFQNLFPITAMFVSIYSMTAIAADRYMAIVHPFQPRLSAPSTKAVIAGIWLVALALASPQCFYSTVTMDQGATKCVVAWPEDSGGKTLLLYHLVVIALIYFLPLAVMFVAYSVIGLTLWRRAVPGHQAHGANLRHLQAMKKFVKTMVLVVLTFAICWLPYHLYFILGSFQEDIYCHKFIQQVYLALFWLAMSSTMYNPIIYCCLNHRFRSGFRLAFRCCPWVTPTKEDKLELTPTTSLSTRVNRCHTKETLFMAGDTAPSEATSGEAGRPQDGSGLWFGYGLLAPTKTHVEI
Procedure: as §1, §2, §3

T1 sequence (P25103 whole entry): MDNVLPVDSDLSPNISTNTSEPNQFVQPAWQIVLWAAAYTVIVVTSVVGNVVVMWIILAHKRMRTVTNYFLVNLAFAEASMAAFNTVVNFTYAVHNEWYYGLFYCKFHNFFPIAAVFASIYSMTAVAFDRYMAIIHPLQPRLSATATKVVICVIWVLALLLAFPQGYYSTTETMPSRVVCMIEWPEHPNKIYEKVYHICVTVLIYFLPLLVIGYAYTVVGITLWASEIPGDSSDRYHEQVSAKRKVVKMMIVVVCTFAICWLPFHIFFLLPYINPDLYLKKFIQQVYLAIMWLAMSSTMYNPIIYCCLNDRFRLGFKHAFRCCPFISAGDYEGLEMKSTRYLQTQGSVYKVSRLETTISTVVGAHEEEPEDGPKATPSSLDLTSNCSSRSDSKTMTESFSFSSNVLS

Row | SMILES | pEC50 (hNK1R) | hNK1R, IP3 Efficacy (hNK1R) | pEC50 (hNK3R) | hNK3, IP3 Efficacy (hNK3R) | pEC50 (hNK2R) | hNK2R, IP3 Efficacy (hNK2R) | hNK2R receptor activation, in words (hNK2R)
1 | CCCC[C@H](NC(=O)[C@H](CC(C)C)NC(=O)CNC(=O)[C@@H](NC(=O)[C@H](Cc1ccccc1)NC(=O)[C@H](CCCCN)NC(=O)[C@H](CC(=O)O)NC(=O)COCCOCCNC(=O)COCCOCCNC(=O)CC[C@H](NC(=O)CCCCCCCCCCCCCCCCC(=O)O)C(=O)O)C(C)C)C(N)=O [compound 389, *Asp;Lys;Phe;Val;Gly;Leu;Nle;NH2] | 7.80 and 7.82 | 108% and 100% | 7.46 | 100% and 60% | 8.55 and 8.54 | 83% and 80% | 
2 | CCCC[C@H](NC(=O)[C@H](CC(C)C)N(C)C(=O)CNC(=O)[C@@H](NC(=O)[C@H](Cc1cccc(O)c1)NC(=O)[C@H](CCCCN)NC(=O)[C@H](CC(=O)O)NC(=O)COCCOCCNC(=O)COCCOCCNC(=O)CC[C@H](NC(=O)CCCCCCCCCCCCCCCCC(=O)O)C(=O)O)C(C)C)C(N)=O [compound 361, *Asp;Lys;3-OH-Phe;Val;Gly;NmLeu;Nle;NH2] ({C18 diacid-γGlu-AEEA-AEEA}-DK[mTyr]VG[NMeL][Nle]-NH2) | 6.70 | 70% | ~4.33 | 60% | 8.64 | 100% | 
3 | CCCC[C@H](NC(=O)[C@H](CC(C)C)N(C)C(=O)CNC(=O)[C@H](CO)NC(=O)[C@H](Cc1ccc(O)cc1)NC(=O)[C@H](CCCCN)NC(=O)[C@H](CC(=O)O)NC(=O)COCCOCCNC(=O)COCCOCCNC(=O)CC[C@H](NC(=O)CCCCCCCCCCCCCCCCC(=O)O)C(=O)O)C(N)=O [compound 386, *Asp;Lys;Tyr;Ser;Gly;NmLeu;Nle;NH2] ({C18 diacid-γGlu-AEEA-AEEA}-DKYSG[NMeL][Nle]-NH2) |  | 0% |  | 0% | 7.54 | 63% | 
4 | CCCC[C@H](NC(=O)[C@H](CC(C)C)N(C)C(=O)CNC(=O)[C@@H](NC(=O)[C@H](Cc1ccccc1)NC(=O)[C@H](CCCCN)NC(=O)[C@@H](N)CC(=O)O)C(C)C)C(N)=O [compound 375, Asp;Lys;Phe;Val;Gly;NmLeu;Nle;NH2] | 7.92 | 110% | ~4.30 | 35% | 9.30 | 100% | 
5 | CCCC[C@H](NC(=O)[C@H](CC(C)C)N(C)C(=O)CNC(=O)[C@@H](NC(=O)[C@H](Cc1ccc(I)cc1)NC(=O)[C@H](CCCCN)NC(=O)[C@H](CC(=O)O)NC(=O)COCCOCCNC(=O)COCCOCCNC(=O)CC[C@H](NC(=O)CCCCCCCCCCCCCCCCC(=O)O)C(=O)O)C(C)C)C(N)=O [compound 330, *Asp;Lys;4-I-Phe;Val;Gly;NmLeu;Nle;NH2] | ~6.77 | 40% |  | 0% |  | 0% | completely destroys NK2R activation
6 | CSCC[C@H](NC(=O)[C@H](CC(C)C)N(C)C(=O)CNC(=O)[C@@H](NC(=O)[C@H](Cc1ccccc1)NC(=O)[C@H](CCCCNC(=O)COCCOCCNC(=O)COCCOCCNC(=O)CC[C@H](NC(=O)CCCCCCCCCCCCCCCCC(=O)O)C(=O)O)NC(=O)[C@H](CC(=O)O)NC(C)=O)C(C)C)C(N)=O [compound 301, **Asp;Lys*;Phe;Val;Gly;NmLeu;Met;NH2] | ~5.82 | 64% | 6.80 | 85% | 7.42 | 63% | 
7 | CCCC[C@H](NC(=O)[C@H](CC(C)C)N(C)C(=O)CCNC(=O)[C@@H](NC(=O)[C@H](Cc1ccccc1)NC(=O)[C@H](CO)NC(=O)[C@H](CC(=O)O)NC(=O)[C@@H](NC(=O)[C@H](CCCCN)NC(=O)COCCOCCNC(=O)COCCOCCNC(=O)CC[C@H](NC(=O)CCCCCCCCCCCCCCCCC(=O)O)C(=O)O)[C@@H](C)O)C(C)C)C(N)=O [compound 310, *Lys;Thr;Asp;Ser;Phe;Val;bAla;NmLeu;Nle;NH2] ({C18 diacid-γGlu-AEEA-AEEA}-KTDSFV[βAla][NMeL][Nle]-NH2) |  | 0% |  | 80% | 7.35 | 65% | 
